Laboratory results reported in patent US8304410B2, “Pyrrole compounds as inhibitors of mycobacteria, synthesis thereof and intermediates thereto” (priority 2007, dated 2012).
Converted amounts (≈) assume the structure as drawn.

How the values were obtained:
Assay type in all cases: cell-based
M. tuberculosis SM-R = details: streptomycin-resistant mycobacteria
M. tuberculosis INH-R = experiment: microbe, parasite or virus in culture; details: for M. tuberculosis INH-R MIC: isoniazid-resistant mycobacteria; for MIC: Mycobacterium tuberculosis, read-out: M. tuberculosis INH-R MIC
M. tuberculosis RMP-R = experiment: microbe, parasite or virus in culture; details: for M. tuberculosis RMP-R (Rif-R) MIC: rifampicin-resistant mycobacteria; for MIC: Mycobacterium tuberculosis, read-out: M. tuberculosis RMP-R (Rif-R) MIC
M. tuberculosis PZA-R = details: pirazinamide-resistant mycobacteria

SMILES	SM-R MIC (M. tuberculosis SM-R)	M. tuberculosis INH-R MIC (M. tuberculosis INH-R)	M. tuberculosis RMP-R (Rif-R) MIC (M. tuberculosis RMP-R)	PZA-R MIC (M. tuberculosis PZA-R)	MIC (M. tuberculosis INH-R)	MIC (M. tuberculosis RMP-R)
CCc1ccc(-n2c(-c3ccc(SC)cc3)cc(CN3CCSCC3)c2C)cc1 [Compound 3c]	0.25 µg/mL	16 µg/mL	0.25 µg/mL	0.25 µg/mL	–	–
CSc1ccc(-c2cc(CN3CCOCC3)c(C)n2-c2ccc(F)cc2)cc1 [Compound 3h]	0.25 µg/mL	>16 µg/mL	2 µg/mL	0.5 µg/mL	–	–
NNC(=O)c1ccncc1 [Isoniazid, INH, Isoniazid, reference compound]	–	–	–	–	> 64 µg/mL	0.25 µg/mL (≈ 1.82 µM)
[H]/N=C(/N)N[C@H]1[C@H](O)[C@@H](O)[C@H](O[C@@H]2O[C@@H](C)[C@](O)(C=O)[C@H]2O[C@@H]2O[C@@H](CO)[C@H](O)[C@@H](O)[C@@H]2NC)[C@@H](N/C(N)=N\[H])[C@@H]1O [Streptomycin, SM, Streptomycin, reference compound]	–	–	–	–	0.5 µg/mL (≈ 0.86 µM)	0.5 µg/mL (≈ 0.86 µM)
CSc1ccc(-c2cc(CN3CCSCC3)c(C)n2-c2ccc(C(C)C)cc2)cc1 [Compound 3e]	0.125 µg/mL	16 µg/mL	1 µg/mL	1 µg/mL	–	–
CCCc1ccc(-n2c(-c3ccc(SC)cc3)cc(CN3CCSCC3)c2C)cc1 [Compound 3d]	0.25 µg/mL	8 µg/mL	0.5 µg/mL	0.5 µg/mL	–	–
CSc1ccc(-c2cc(CN3CCSCC3)c(C)n2-c2ccc(F)cc2)cc1 [Compound 3a, N-(4-fluorophenyl)-2-methyl-3-thiomorpholinomethyl-5-(4-methylsulfanylphenyl)pyrrole]	–	>16 µg/mL	–	–	> 16 µg/mL	0.25 µg/mL (≈ 0.606 µM)
CSc1ccc(-c2cc(CN3CCN(C)CC3)c(C)n2-c2ccc(F)cc2)cc1 [Compound 3f]	1 µg/mL	8 µg/mL	2 µg/mL	2 µg/mL	–	–
CSc1ccc(-c2cc(CN3CCSCC3)c(C)n2-c2ccc(C)cc2)cc1 [Compound 3b]	0.25 µg/mL	16 µg/mL	0.25 µg/mL	0.5 µg/mL	–	–
CO[C@H]1/C=C/O[C@@]2(C)Oc3c(C)c(O)c4c(O)c(c(/C=N/N5CCN(C)CC5)c(O)c4c3C2=O)NC(=O)/C(C)=C\C=C\[C@H](C)[C@H](O)[C@@H](C)[C@@H](O)[C@@H](C)[C@H](OC(C)=O)[C@@H]1C [Rifampicin, RIF, Rifampicin]	–	–	–	–	0.8 µg/mL (≈ 0.972 µM)	> 64 µg/mL
